From ChEMBL document CHEMBL1201862, “PubChem BioAssay data set” (2004)
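Tested at 5 concentrations; 48 h exposure; 96-well plates; endpoints linearly interpolated, else capped at highest concentration. GI50 marks 50% less growth.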 Active and inactive are the calls of the source. Rule as the data show it: active = GI50 up to about 1.1 µM and inactive = higher.

Key:
Test in all cases: inhibition of tumour cell growth, NCI panel, 48 h
COLO 205 = tested on: COLO 205
K562 = tested on: K562
HOP-62 = tested on: HOP-62
UACC-62 = tested on: UACC-62
NCI-H23 = tested on: NCI-H23
SK-OV-3 = tested on: SK-OV-3
DU-145 = tested on: DU-145
PC-3 = tested on: PC-3
ACHN = tested on: ACHN
A498 = tested on: A498
SK-MEL-5 = tested on: SK-MEL-5
SK-MEL-2 = tested on: SK-MEL-2
SK-MEL-28 = tested on: SK-MEL-28
786-0 = tested on: 786-0
SF-295 = tested on: SF-295
NCI-H522 = tested on: NCI-H522
NCI-H460 = tested on: NCI-H460
MDA-N = tested on: MDA-N
SF-539 = tested on: SF-539

Structure (SMILES)	GI50 (COLO 205)	GI50 (K562)	GI50 (HOP-62)	GI50 (UACC-62)	GI50 (NCI-H23)	GI50 (SK-OV-3)	GI50 (DU-145)	GI50 (PC-3)	GI50 (ACHN)	GI50 (A498)	GI50 (SK-MEL-5)	GI50 (SK-MEL-2)	GI50 (SK-MEL-28)	GI50 (786-0)	GI50 (SF-295)	GI50 (NCI-H522)	GI50 (NCI-H460)	GI50 (MDA-N)	GI50 (SF-539)
CN(Cc1cc(Cl)cc(Cl)c1O)Cc1c(O)ccc2ccccc12	16.9 µM (inactive)	26 µM (inactive)	18.1 µM (inactive)	15.5 µM (inactive)	18.4 µM (inactive)	18.2 µM (inactive)	22.3 µM (inactive)	16.6 µM (inactive)	17.3 µM (inactive)	17.1 µM (inactive)	17.5 µM (inactive)	19.3 µM (inactive)	19.1 µM (inactive)	21 µM (inactive)	17.2 µM (inactive)	15 µM (inactive)	18.4 µM (inactive)	24.9 µM (inactive)	20.9 µM (inactive)
c1cc2c(cc1NC1=NCCO1)CCCC2	1.84 µM (inactive)	2.45 µM (inactive)	2.67 µM (inactive)	4.11 µM (inactive)	4.09 µM (inactive)	4.38 µM (inactive)	5.08 µM (inactive)	3.01 µM (inactive)	7.59 µM (inactive)	3.76 µM (inactive)	3.05 µM (inactive)	2.97 µM (inactive)	5.19 µM (inactive)	5.07 µM (inactive)	4.02 µM (inactive)	3.52 µM (inactive)	3.3 µM (inactive)	1.41 µM (inactive)	2.74 µM (inactive)
C/C=C(\C)C(O)C(C)C(O)C/C=C(C)/C=C(\C)C/C(C)=C/C/C=C(\C)C(O)C(C)c1ccc(CCC)c(=O)o1 (stereo unspecified)	3.78 µM (inactive)	0.501 µM (active)	16.2 µM (inactive)	9.86 µM (inactive)	< 0.01 µM (active)	32.2 µM (inactive)	< 0.01 µM (active)	3.5 µM (inactive)	< 0.01 µM (active)	14.7 µM (inactive)	1.14 µM (inactive)	23.8 µM (inactive)	17.1 µM (inactive)	20.8 µM (inactive)	0.349 µM (active)	2 µM (inactive)	5.18 µM (inactive)	8.77 µM (inactive)	14.1 µM (inactive)
CC1(C)CC2=NO[Se]3=C2C(=NO3)C1	2.07 µM (inactive)	2.72 µM (inactive)	2.99 µM (inactive)	2.27 µM (inactive)	2.15 µM (inactive)	4.52 µM (inactive)	3.83 µM (inactive)	0.394 µM (active)	1.72 µM (inactive)	4.3 µM (inactive)	1.81 µM (inactive)	5.78 µM (inactive)	4.54 µM (inactive)	1.94 µM (inactive)	2.36 µM (inactive)	1.9 µM (inactive)	1.34 µM (inactive)	1.95 µM (inactive)	2.15 µM (inactive)
COC(=O)CC1C(C)(C)C(=O)C2CC3=C4CC(=O)OC(c5ccoc5)C4(C)CCC3C1(C)C2=O (stereo unspecified)	> 100 µM (inactive)	> 100 µM (inactive)	> 100 µM (inactive)	> 100 µM (inactive)	> 100 µM (inactive)	> 100 µM (inactive)	> 100 µM (inactive)	> 100 µM (inactive)	> 100 µM (inactive)	> 100 µM (inactive)	> 100 µM (inactive)	> 100 µM (inactive)	> 100 µM (inactive)	> 100 µM (inactive)	> 100 µM (inactive)	> 100 µM (inactive)	> 100 µM (inactive)	> 100 µM (inactive)	> 100 µM (inactive)
COc1ccc2c3c1O[C@H](c1ccc(O)cc1)[C@H]3[N+](C)(C)CC2	68.4 µM (inactive)	34.1 µM (inactive)	> 100 µM (inactive)	> 100 µM (inactive)	46.6 µM (inactive)	> 100 µM (inactive)	> 100 µM (inactive)	75.5 µM (inactive)	> 100 µM (inactive)	> 100 µM (inactive)	86.3 µM (inactive)	> 100 µM (inactive)	> 100 µM (inactive)	> 100 µM (inactive)	> 100 µM (inactive)	42.8 µM (inactive)	> 100 µM (inactive)	> 100 µM (inactive)	> 100 µM (inactive)
CN1C(NN)=NS(=O)(=O)c2ccccc21	> 100 µM (inactive)	> 100 µM (inactive)	> 100 µM (inactive)	> 100 µM (inactive)	> 100 µM (inactive)	> 100 µM (inactive)	> 100 µM (inactive)	> 100 µM (inactive)	> 100 µM (inactive)	> 100 µM (inactive)	> 100 µM (inactive)	> 100 µM (inactive)	> 100 µM (inactive)	> 100 µM (inactive)	> 100 µM (inactive)	> 100 µM (inactive)	> 100 µM (inactive)	> 100 µM (inactive)	> 100 µM (inactive)
CCCCOc1ccc(/C=C/C2=[N+](CCO)CCO2)cc1	24.7 µM (inactive)	24 µM (inactive)	> 100 µM (inactive)	> 100 µM (inactive)	> 100 µM (inactive)	> 100 µM (inactive)	> 100 µM (inactive)	68.4 µM (inactive)	91.6 µM (inactive)	> 100 µM (inactive)	68.5 µM (inactive)	> 100 µM (inactive)	> 100 µM (inactive)	54.1 µM (inactive)	48.5 µM (inactive)	21.5 µM (inactive)	68.7 µM (inactive)	> 100 µM (inactive)	21.7 µM (inactive)
CCOC(=O)Cc1c(C(=O)OCC)[n+]([O-])c2cc(Cl)c(Cl)cc2[n+]1[O-]	1.73 µM (inactive)	2.62 µM (inactive)	1.95 µM (inactive)	2.18 µM (inactive)	2.18 µM (inactive)	3.77 µM (inactive)	1.69 µM (inactive)	2.1 µM (inactive)	1.76 µM (inactive)	2.31 µM (inactive)	1.47 µM (inactive)	2.59 µM (inactive)	4.68 µM (inactive)	1.54 µM (inactive)	3.66 µM (inactive)	1.84 µM (inactive)	1.45 µM (inactive)	2.62 µM (inactive)	2.08 µM (inactive)
CC(C)(C)OC(=O)N1Cc2cc(O)ccc2C[C@H]1C(=O)O	> 100 µM (inactive)	> 100 µM (inactive)	> 100 µM (inactive)	> 100 µM (inactive)	> 100 µM (inactive)	> 100 µM (inactive)	> 100 µM (inactive)	> 100 µM (inactive)	> 100 µM (inactive)	> 100 µM (inactive)	> 100 µM (inactive)	> 100 µM (inactive)	> 100 µM (inactive)	> 100 µM (inactive)	> 100 µM (inactive)	> 100 µM (inactive)	> 100 µM (inactive)	> 100 µM (inactive)	> 100 µM (inactive)
C/C=C/C=C/C1=NN(c2cccc(S(=O)(=O)O)c2)C2(C1)C(Cl)C(=O)N2c1nc2ccccc2s1 (stereo unspecified)	18.3 µM (inactive)	28.8 µM (inactive)	14.7 µM (inactive)	13 µM (inactive)	15.1 µM (inactive)	19.2 µM (inactive)	13.4 µM (inactive)	13.5 µM (inactive)	15.4 µM (inactive)	16.3 µM (inactive)	12.2 µM (inactive)	15.6 µM (inactive)	20.6 µM (inactive)	13.8 µM (inactive)	16.3 µM (inactive)	4.22 µM (inactive)	15.4 µM (inactive)	15.5 µM (inactive)	12.6 µM (inactive)
CCCCn1c(C)c2c(c1C)C(=O)N(CC(O)CN1CCc3ccccc3C1)C2=O (stereo unspecified)	37.8 µM (inactive)	47.2 µM (inactive)	> 100 µM (inactive)	60 µM (inactive)	56.5 µM (inactive)	> 100 µM (inactive)	> 100 µM (inactive)	56.6 µM (inactive)	36.7 µM (inactive)	29.8 µM (inactive)	31.5 µM (inactive)	0.292 µM (active)	> 100 µM (inactive)	45.8 µM (inactive)	42.4 µM (inactive)	> 100 µM (inactive)	86.7 µM (inactive)	70 µM (inactive)	69.8 µM (inactive)
COC(=O)C1C2OC(C)(C)OC2CN1S(=O)(=O)c1ccc(C)cc1 (stereo unspecified)	> 100 µM (inactive)	> 100 µM (inactive)	> 100 µM (inactive)	> 100 µM (inactive)	> 100 µM (inactive)	> 100 µM (inactive)	> 100 µM (inactive)	> 100 µM (inactive)	> 100 µM (inactive)	> 100 µM (inactive)	> 100 µM (inactive)	> 100 µM (inactive)	> 100 µM (inactive)	> 100 µM (inactive)	> 100 µM (inactive)	> 100 µM (inactive)	> 100 µM (inactive)	> 100 µM (inactive)	> 100 µM (inactive)
CC(=O)O[C@H]1C(=O)[C@@]2(C)[C@H]([C@H](OC(=O)c3ccccc3)[C@]3(O)C[C@H](OC(=O)[C@H](O)[C@@H](NC(=O)c4ccco4)c4ccccc4)C(C)=C1C3(C)C)[C@]1(OC(C)=O)CO[C@@H]1C[C@@H]2O	< 0.00125 µM (active)	< 0.00125 µM (active)	< 0.00125 µM (active)	< 0.00125 µM (active)	0.00136 µM (active)	< 0.00125 µM (active)	0.00205 µM (active)	< 0.00125 µM (active)	0.043 µM (active)	0.0141 µM (active)	< 0.00125 µM (active)	< 0.00125 µM (active)	> 12.5 µM (inactive)	0.00421 µM (active)	0.00624 µM (active)	< 0.00125 µM (active)	< 0.00125 µM (active)	< 0.00125 µM (active)	< 0.00125 µM (active)
